Data: patent US5900434A, “Method for inhibiting the production of interleukin-1 or tumor necrosis factor-α by administering acanthoic acid” (Korea Institute of Science and Technology, priority 1994, dated 1999)

Key:
[1] = tested on: TNF-α production in rat alveolar macrophages and lymphocytes; test: Inhibition of TNF-α production in rat alveolar macrophages and lymphocytes; format: cell-based; details: 10 μg/ml; 100 μg/ml silica, 3 days; FIG. 4
Procedure: TNF-α dependent L929 fibroblasts(ATCC CCLl) were suspended in RPMI 1640 medium containing 5% FBS and added to the wells of 96-well incubation plate in an amount of 3×10^4 cells/well. The plate was incubated at 37° C. for 2 hours to make the cells adhere to the incubation plate. Then, the medium was removed and 1 μg/ml of actinomycin D(Sigma) and 50 μl of culture dialyzate of monocytes and macrophages obtained in Example 1 were added to each of the wells. The final concentration of FBS in each well was adjusted to 5% and the cells were incubated at 37° C. under 5% CO2 for 24 hours.
When the incubation was completed, the medium was removed and the cells were washed twice with PBS and stained for 5 minutes with 0.5% crystal violet solution in 20% methanol. The cells were washed three times with PBS and dried. Then, 100 μl of 33% acetic acid was added to each of the wells to release the dye, and then the O.D. of sample obtained from each of the wells was determined by using ELISA reader with 570 nm reading filter and 405 nm reference filter. The amount of released dye was calculated from the O.D. value with reference to that of the internal control group, i.e., rHu TNF-α(Genzyme). […]

[2] = tested on: H2O2 production in human neutrophils; test: Production of H2O2 in human neutrophils (PMA-stimulated); format: cell-based
Procedure: Normal human peripheral blood was heparin-treated and diluted with equal amount of Hank's balanced salt solution (HBSS: Ca^2+ and Mg^2+ free). The diluted blood was put into a centrifuge tube containing therein Ficoll-Hypaque(Sigma, St. Louis, Mo., U.S.A.) layer having a density of 1.077 piled up on Ficoll-Hypaque layer having a density of 1.119, and then centrifuged at 700×g for 30 minutes to obtain monocytes from the layer between Ficoll-Hypaque layer having a density of 1.077 and serum layer, and neutrophils from the layer between Ficoll-Hypaque layer having a density of 1.077 and that having a density of 1.119. The separated cells were washed twice with 4° C. HBSS(Ca^2+ and Mg^2+ free) and suspended in RPMI 1640 medium(Gibco, Grand Island, N.Y., U.S.A.) containing 10% fetal bovine serum(FBS, Hyclone, Logan, Utah, U.S.A.). The suspensions were added to the wells of 24-well incubation plate(Costar, Cambridge, Mass., U.S.A.) and incubated at 37° C. for 2 hours to obtain monocytes, macrophages and neutrophils. Inflammatory responses are known as a cascade reaction comprising the secretion of various cytokines, e.g., IL-1, from immune cells stimulated by various stimulants; production of phospholipase A2, lysosomal enzyme, reactive oxygen species, etc. by other immune cells stimulated by said cytokines; and damage of tissues induced by the above products(Pruzanski, W. and […]., Immunol. Today, 12, 143(1991)). The ability of acanthoic acid to block the inflammatory reactions was tested by measuring their inhibitory activity to the production of reactive oxygen species, i.e., H2 O2 and O2^-. The amount of H2 O2 was determined by a microassay employing 96-well microplate as follows. 5×10^5 cells of neutrophils were added to each of the wells containing RPMI 1640 medium, and then 25 μl of horseradish peroxidase (500 μg/ml; type II, Sigma) and 75 μl of phenol red(1 mg/ml) were added to each of the wells. Thereafter, the cells were treated with 10, 20 and 50 μg/ml of acanthoic acid for an hour, stimulated with 10^-7 M phorbol myristate acetate(PMA) and then incubated at 37° C. for 60 minutes. When the incubation was completed, 3M NaOH was added to the wells in an amount of 25 μl/well to stop the reaction and O.D. was measured at 620 nm by using ELISA reader(Dynatech Lab. Inc.) to determine the change of colors with respect to the oxidation of phenol. The amount of H2 O2 was determined by employing a standard curve prepared by diluted H2 O2 (Sigma).

[3] = tested on: NIH3T3 fibroblasts; test: Inhibition of proliferation of NIH3T3 fibroblasts (3H-thymidine); format: cell-based; details: dialyzate of monocytes/macrophages treated with 10 μg/ml acanthoic acid and silica; 5 days; FIG. 6
Procedure: NIH3T3 fibroblast(ATCC CRL 1658) was cultured in RPMI 1640 medium containing 10% FBS under the same conditions as described above. Acanthoic acid was added in various concentrations to 5×10^5 /ml of cells obtained in the above procedures, and the cells were precultured at 37° C. for 1 hour in 5% CO2 incubator. Then, 1 ml each of silica(100 μg/ml) and RPMI 1640 medium containing 2% FBS were added thereto and the cells were cultured under the same conditions as above for 48 hours. The culture supernatant was collected and centrifuged at 1,500 rpm for 10 minutes to remove the cells and silica. The obtained supernatant was dialyzed against PBS and filtered by 0.2 μm filtration syringe, and the filtrate was stored at -20° C. Fibrosis is caused largely by the proliferation of fibroblasts or by the synthesis of collagen. To confirm the effect of acanthoic acid on the proliferation of fibroblasts, human monocytes and macrophages were treated with 10 μg/ml of acanthoic acid and cultured according to the procedure as described in Reference Example 1 (3). The culture was dialyzed against PBS, and 50 μl of the dialyzate was added to the wells of an incubation plate. […] The amount of ^3 H-thymidine incorporated in the cell was determined by employing liquid scintillation counter(FIG. 6). […]

[4] = tested on: prostaglandin E2 (PGE2) synthesis; details: cited from earlier work

With `C=C[C@@]1(C)CC=C2C(CCC3[C@](C)(C(=O)O)CCC[C@@]23C)C1` (single isomer, unassigned; (-)) [acanthoic acid, (-)-pimara-9(11),15-diene-19-oic acid] the “inhibition of production of TNF-α” value [1] was “inhibited”, the activity at 10 µg/mL ([2]; Neutrophil, 1 h, PMA + acanthoic acid 10 μg/ml, PMA = 100, read-out: Amount of produced reactive oxygen species, H2O2 (% to the control group)) was 70% and the activity at 20 µg/mL ([2]; Neutrophil, 1 h, PMA + acanthoic acid 20 μg/ml, PMA = 100, read-out: Amount of produced reactive oxygen species, H2O2 (% to the control group)) was 37.4%. The activity at 50 µg/mL ([2]; Neutrophil, 1 h, PMA + acanthoic acid 50 μg/ml, PMA = 100, read-out: Amount of produced reactive oxygen species, H2O2 (% to the control group)) was 15.8%, the “Amount of produced reactive oxygen species, H2O2” value (“Amount” for short) ([2]; PMA + acanthoic acid 10 μg/ml) was 72.6 nM/60 min and the “Amount” value ([2]; PMA + acanthoic acid 20 μg/ml) was 38.7 nM/60 min. For the same compound, the “Amount” value ([2]; PMA + acanthoic acid 50 μg/ml) was 16.4 nM/60 min, the proliferation of fibroblasts [3] was “inhibited significantly” and the “inhibition of prostaglandin E2 (PGE2) synthesis” value [4] was “inhibit”.
